Results published in patent publication US8791105B2, “Methods for alleviating chronic pain and improving performance of cattle undergoing dehorning or castration” (Kansas State University Research Foundation, priority 2010, dated 2014).
Where “and” joins values, the source holds several entries; their conditions need not be identical. Identical values can stand only once. Like-named read-outs stand apart in the source and are kept apart here. Marks after values point to notes of the source that are not given here.

Tests used:
[1] = test system: calves after scoop dehorning; experiment: Heart rate before and after dehorning; type: in vivo, Holstein calves
Description: Heart rate (HR) data were recorded 48 hours before and after dehorning for each calf. HR was recorded and analyzed using a commercially-available heart rate monitor and software (RS800 and Polar Pro Trainer Equine Edition, Polar Electro, Inc, Lake Success, N.Y.), as previously described (Kotschwar et al, 2009). The HR monitor consisted of a transmitter placed over the heart in the left foreflank attached to a girth strap placed around the heart girth of the calves, and a wrist unit attached to the elastic strap which received and recorded the signal from the transmitter. Girth straps were kept in position using a cohesive flexible bandage (Oasis Bandage, Fisher Healthcare, Houston, Tex.). Appropriate conductance for the electrodes on the strap, one positioned on the sternum and one over the right scapula, was facilitated by use of ultrasound gel (Medline Industries Inc. Mundeline, Ill.). The transmitter measured the electric signal (ECG) of the heart every 15 seconds. Prior to study commencement, the HR wrist unit time was synchronized with the stopwatches used for all other sample collection. The corresponding HR within 15 seconds of each time point was used for analysis.
Repeated measures data (heart rate and cortisol concentrations at each time point) were analyzed using a univariate split-plot approach. A random effects-mixed model was constructed with treatment, time and time*treatment interaction designated as fixed effects. In this model, animal nested in treatment was designated as a random effect to account for the between subject effects. Statistical significance was designated a priori as p<0.05. Where significant time*treatment interactions were detected, planned comparisons between different time*treatment combinations were conducted using two-sided Student t-tests (Ramsey and Schafer, 2002). Individual confidence levels were controlled for all planned comparisons.

[2] = test system: Bovine Respiratory Disease (BRD); experiment: Health outcomes (pulls, morbidity, BRD, removal, mortality) after castration or processing (Example 4); type: in vivo, cross-bred beef calves; conditions: for Study removal: 28 days; for First BRD relapse rate / First re-pull rate / BRD morbidity / Overall morbidity: estimated probability adjusted for pen; for Pulls (pen-adjusted first pull rate): estimated probability
Description: This study was designed as a stratified 2-arm parallel trial. […] Calves were maintained on open pens that consisted of a combination of concrete aprons and dirt pens. […] Upon arrival, calves were unloaded and sorted (d 0).
Processing and surgical castration was performed by the same operator to minimize variation in procedure. […] Briefly, the scrotum of each calf was cleaned with dilute chlorohexidine disinfectant and incised longitudinally with a Newberry knife (Jorgensen Lab, Loveland, Colo.). The testes and spermatic cords were exteriorized by blunt dissection and the cremaster was broken using manual traction. The spermatic cords were cut using a White's Double Crush emasculator (Jorgensen Lab, Loveland, Colo.) applied for approximately 30 seconds. Steers were subjected to the same handling procedures apart from knife cutting and castration.
Kansas State University Beef Stocker Unit personnel conducted twice daily evaluations of the cattle and were masked to drug treatment assignment throughout the study. Animals were deemed “sick” based on subjective criteria including general appearance and attitude, gauntness, and reluctance to move. If a sick calf was identified it was removed from the pen, brought to the processing unit, and its rectal temperature was obtained.
Animals not treated for BRD on initial evaluation that continued to display clear visual signs of BRD for 2 consecutive days were treated with an antimicrobial regardless of temperature. […] After treatments, cattle were returned to their home pens.
In addition to BRD, other health outcomes that were considered included lameness, scrotal infection, and coccidiosis. A diagnosis of lameness was based on signs of limping and reduced weight bearing on one or more limbs during standing and walking. A diagnosis of scrotal infection was based on signs of anorexia, fever, and the presence of swelling and purulent discharge from the castration site. A diagnosis of coccidiosis was based on signs of diarrhea, anorexia, and depression and the presence of coccidia oocysts on microscopic examination of the feces.
The removal of an animal from the study was permitted only for significant illness or injury that compromised the welfare of the animal. All calves that became severely injured or moribund were humanely euthanized. Animals that died or were euthanized during the study were transferred to the KSU Veterinary Diagnostic Laboratory for necropsy and disposal.
A generalized linear mixed model was fit to number of health events in a given pen using a binomial distribution whereby pen size defined the number of trials. Health outcomes included Pull, Morbidity and BRD. […] The random effect of Lot was also fit in the linear predictor as a blocking factor to account for variability in health events between lots. Model parameters were estimated using Laplace integral approximation to maximum likelihood. Inference was conducted after checking for absence of overdispersion based on the Pearson chi-square/df fit statistic.
The endpoint of interest was survival time, which was defined as the time to first pull, first treatment, first treatment for BRD, or the end of the study in days. In the data set, the variable Group represented the treatment category (MEL or CONT), the variable Time represented the disease-free survival time, and the a variable Status was used as a censoring indicator, with the value 1 indicating an event time and the value 0 indicating a censored time.

serum cortisol = conditions: for cortisol AUEC (area under the time-effect curve): 0.5 mg/kg IV immediately prior to dehorning, mean
[3] = plasma; horses; cited from earlier work
[4] = Pharmacokinetics of intravenous and oral meloxicam in ruminant calves (noncompartmental analysis); conditions: for AUMCINF / λz / MAT: single
[5] = bulls castrated 24 h after 1 mg/kg PO
[6] = IV 0.5 mg/kg, geometric mean (n=6)
[7] = IV 0.5 mg/kg, individual calves, 0.5 mg/kg
[8] = oral 1 mg/kg, geometric mean (n=6)
[9] = oral 1 mg/kg, individual calves, 1 mg/kg

Question: For `Cc1cnc(NC(=O)C2=C(O)c3ccccc3S(=O)(=O)N2C)s1` [meloxicam, 4-hydroxy-2-methyl-N-(5-methyl-2-thiazolyl)-2H-1,2-benzothiazine-3-carboxamide-1,1-dioxide], which “increase in mean heart rate after dehorning” value ([1]; 0.5 mg/kg IV immediately prior to dehorning) is on record?
Answer: 7 beats/minute

Question: And the “mean heart rate prior to dehorning” value ([1]; meloxicam group, baseline, 48 h before dehorning)?
Answer: 90±4 beats/minute

Question: And the “mean difference in heart rate between treatment groups post-dehorning” value ([1]; meloxicam vs placebo, p=0.62)?
Answer: 3±6 beats/minute

Question: And the “difference in heart rate between treatment groups across periods” value ([1]; meloxicam vs placebo, p=0.9)?
Answer: 1±6 beats/minute

Question: What about the Mortality rate ([2]; MEL-CAST (bulls)) of the same molecule?
Answer: 0 no. (%)

Question: What about the Pen death ([2]; MEL-CAST (bulls)) of the same molecule?
Answer: 0 no. (%)

Question: What about the “Removal for neurological symptoms” value ([2]; MEL-CAST (bulls)) of the same molecule?
Answer: 1 (1%) no. (%)

Question: What about the Removal for lameness ([2]; MEL-CAST (bulls), listed as MEL) of the same molecule?
Answer: 2 no. (%) and 2 (3%) no. (%)

Question: And the Study removal ([2]; MEL-CAST (bulls, 71 enrolled))?
Answer: 4 (6%) no. (%)

Question: What about the peak overall morbidity ([2]; MEL-CAST group, peak on day 6) of the same molecule?
Answer: 4%

Question: What about the Mortality rate ([2]; MEL-STR (steers)) of the same molecule?
Answer: 0 no. (%)

Question: And the Pen death ([2]; MEL-STR (steers))?
Answer: 0 no. (%)

Question: And the “Removal for chronic coccidiosis” value ([2]; MEL-STR (steers))?
Answer: 0 no. (%)

Question: What about the “Removal for neurological symptoms” value ([2]; MEL-STR (steers)) of the same molecule?
Answer: 0 no. (%)

Question: What about the Removal for lameness ([2]; MEL-STR (steers), listed as MEL) of the same molecule?
Answer: 1 no. (%) and 1 (2%) no. (%)

Question: What about the Study removal ([2]; MEL-STR (steers, 58 enrolled)) of the same molecule?
Answer: 1 (2%) no. (%)

Question: And the “peak overall morbidity rate” value ([2]; MEL-STR group, peak on day 12)?
Answer: 7%

Question: And the “reduction in likelihood of developing BRD vs placebo-treated castrated bulls” value ([2]; bull calves receiving meloxicam prior to castration)?
Answer: about 50 % less likely

Question: And the “First BRD relapse rate” value ([2]; bulls (castrated), 1 mg/kg PO)?
Answer: 35.7%

Question: What about the First re-pull rate ([2]; bulls (castrated), 1 mg/kg PO) of the same molecule?
Answer: 52.6%

Question: What about the “Pulls (pen-adjusted first pull rate)” value ([2]; bulls castrated 24 h after 1 mg/kg PO (MEL-CAST)) of the same molecule?
Answer: 25.8^y %

Question: What about the “Pulls (pen-adjusted first pull rate)” value ([2]; bulls castrated 24 h after 1 mg/kg PO (MEL-CAST), listed as MEL) of the same molecule?
Answer: 25.83%

Question: And the BRD morbidity [2, 5]?
Answer: 17.2^y %

Question: What about the Overall morbidity [2, 5] of the same molecule?
Answer: 21.1%

Question: And the “Pulls (pen-adjusted first pull rate)” value ([2]; steers (MEL-STR), 1 mg/kg PO)?
Answer: 17.1%

Question: And the BRD morbidity ([2]; steers, 1 mg/kg PO)?
Answer: 12.6%

Question: And the “First BRD relapse rate” value ([2]; steers, 1 mg/kg PO)?
Answer: 50.0%

Question: What about the First re-pull rate ([2]; steers, 1 mg/kg PO) of the same molecule?
Answer: 69.9%

Question: And the Overall morbidity ([2]; steers, 1 mg/kg PO)?
Answer: 14.4%

Question: What about the “effect on incidence of BRD in steers” value ([2]; steers, not castrated, vs untreated control steers) of the same molecule?
Answer: did not appear to decrease the incidence of BRD

Question: What about the “cortisol AUEC (area under the time-effect curve)” value (serum cortisol) of the same molecule?
Answer: 122,961±20,441 minute · nmol/L

Question: What about the “cortisol AUEC (area under the time-effect curve)” value (serum cortisol; listed as Meloxicam) of the same molecule?
Answer: 122,961 ± 20,441 minute · nmol/L

Question: And the “difference in serum cortisol concentrations and heart rate between meloxicam- and placebo-treated groups” value (serum cortisol; after dehorning, 0.5 mg/kg IV)?
Answer: no significant difference

Question: And the reported effective concentration [3]?
Answer: 0.2 µg/mL

Question: What about the AUMCINF [4, 6] of the same molecule?
Answer: 2321.34 hr * hr * ug/mL

Question: And the λz [4, 6]?
Answer: 0.034 h⁻¹

Question: What about the AUMCINF [4, 7] of the same molecule?
Answer: 2400.61 hr * hr * ug/mL and 3177.29 hr * hr * ug/mL and 2472.52 hr * hr * ug/mL and 1779.60 hr * hr * ug/mL and 2351.43 hr * hr * ug/mL and 1982.72 hr * hr * ug/mL

Question: What about the λz [4, 7] of the same molecule?
Answer: 0.036 h⁻¹ and 0.031 h⁻¹ and 0.032 h⁻¹ and 0.039 h⁻¹ and 0.033 h⁻¹ and 0.035 h⁻¹

Question: And the AUMCINF ([4]; IV 0.5 mg/kg, median (n=6))?
Answer: 2376.02 hr * hr * ug/mL

Question: What about the λz ([4]; IV 0.5 mg/kg, median (n=6)) of the same molecule?
Answer: 0.034 h⁻¹

Question: What about the Cmax ([4]; male, Holstein, bovine, in vivo, po, 1 mg/kg) of the same molecule?
Answer: 3790 ng/mL

Question: And the AUMCINF [4, 8]?
Answer: 7384.86 hr * hr * ug/mL

Question: What about the MAT [4, 8] of the same molecule?
Answer: 15.07 h

Question: And the λz [4, 8]?
Answer: 0.025 h⁻¹

Question: What about the AUMCINF [4, 9] of the same molecule?
Answer: 19736.82 hr * hr * ug/mL and 5205.64 hr * hr * ug/mL and 8017.42 hr * hr * ug/mL and 4730.72 hr * hr * ug/mL and 6087.68 hr * hr * ug/mL and 6837.34 hr * hr * ug/mL

Question: What about the λz [4, 9] of the same molecule?
Answer: 0.016 h⁻¹ and 0.028 h⁻¹ and 0.020 h⁻¹ and 0.035 h⁻¹ and 0.032 h⁻¹ and 0.025 h⁻¹

Question: What about the MAT ([4]; oral 1 mg/kg, individual calves, oral MRT minus IV MRT, 1 mg/kg) of the same molecule?
Answer: 39.81 h and 8.77 h and 22.70 h and 8.99 h and 10.14 h and 16.19 h

Question: What about the AUMCINF ([4]; oral 1 mg/kg, median (n=6)) of the same molecule?
Answer: 6462.51 hr * hr * ug/mL

Question: And the MAT ([4]; oral 1 mg/kg, median (n=6))?
Answer: 13.17 h

Question: And the λz ([4]; oral 1 mg/kg, median (n=6))?
Answer: 0.026 h⁻¹
